Several values for one entry are separate records, joined by “and”; a condition that tells them apart may be missing. Identical values can stand only once. Like-named read-outs stand apart in the source and are kept apart here.
What was measured:
[1] = biological target: single-chain tethered dimer of HIV protease (Human immunodeficiency virus 1, UniProt P04585); assay: biochemical; type: biochemical; parameters: fused on or other part: A second copy of the same protease unit is joined to the first by a short peptide tether, giving one polypeptide
HIV-1 (RF) in MT-2 cells = assay: microbe, parasite or virus in culture; type: cell-based
Outline: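 Read-out: gag and pol viral RNA captured by 5′-biotinylated oligonucleotides on streptavidin-coated wells, detected with alkaline phosphatase-linked reporter oligonucleotides, calibrated against BH10 in vitro transcripts. Virus stocks (RF, MN, IIIB) come from H9 cultures; MT-2 host cells kept in RPMI 1640, 5% FCS.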

[2] = Human immunodeficiency virus 1, MT2, Table 2q, read-out: IC90
[3] = read-out: HPLC K1, Table 2d, class symbols
[4] = Human immunodeficiency virus 1, MT2, 48 h, Table 2d, class symbols, read-out: IC90
[5] = read-out: HPLC K1, Table 2d, HIV protease inhibition, HPLC method
[6] = Human immunodeficiency virus 1, MT2, 48 h, Table 2d, HIV RNA assay, read-out: IC90

OC1C(O)C(Cc2ccccc2)N(CC2CC2)C(=S)N(CC2CC2)C1Cc1ccccc1 (stereo not drawn) [Example 27B]
Ki ([1]; read-out: HPLC Ki, Table 2q): < 10 nM
melting point: 84 to 86 °C
IC90 (HIV-1 (RF) in MT-2 cells; [2]): < 10 µg/mL

CCCNC(=O)c1cccc(CN2C(=O)N(Cc3cccc(C(=O)O)c3)C(Cc3ccccc3)C(O)C(O)C2Cc2ccccc2)c1 (stereo not drawn) [15WO]
Ki [1, 3]: < 10 nM
melting point: 151 to 153 °C
IC90 (HIV-1 (RF) in MT-2 cells; [4]): < 10 µg/mL

O=C1N(Cc2ccc(O)c(O)c2)C(Cc2ccccc2)C(O)C(O)C(Cc2ccccc2)N1CC1CC1 (stereo not drawn) [15AG]
Ki [1, 5]: < 10 nM
melting point: 141 °C
IC90 (HIV-1 (RF) in MT-2 cells; [6]): < 10 µg/mL

NC(=NO)c1cccc(CN2C(=O)NC(Cc3ccccc3)C(O)C(O)C2Cc2ccccc2)c1 (stereo not drawn) [15AT]
Ki [1, 5]: < 10 nM
melting point: 172 to 179 °C
IC90 (HIV-1 (RF) in MT-2 cells; [6]): < 10 µg/mL

CCNC(=O)c1cccc(CN2C(=O)N(Cc3cccc(C(=O)NCC)c3)C(Cc3ccccc3)C(O)C(O)C2Cc2ccccc2)c1 (stereo not drawn) [11R]
Ki [1, 3]: < 10 nM
melting point: 135 to 138 °C
IC90 (HIV-1 (RF) in MT-2 cells; [4]): < 10 µg/mL

CC(=O)c1cccc(CN2C(=O)N(Cc3cccc(Br)c3)C(Cc3ccccc3)C(O)C(O)C2Cc2ccccc2)c1 (stereo not drawn) [Example 9o]
Ki [1, 3]: 10 to 1000 nM
melting point: 190 to 191 °C
IC90 (HIV-1 (RF) in MT-2 cells; [4]): < 10 µg/mL

CONC(=O)c1cccc(CN2C(=O)N(Cc3cccc(C(=O)NOC)c3)C(Cc3ccccc3)C(O)C(O)C2Cc2ccccc2)c1 (stereo not drawn) [10R]
Ki [1, 3]: < 10 nM
melting point: 150 to 158 °C
IC90 (HIV-1 (RF) in MT-2 cells; [4]): < 10 µg/mL

O=S1(=O)N(CC2CC2)C(Cc2ccccc2)C(O)C(O)C(Cc2ccccc2)N1CC1CC1 (stereo not drawn) [Example 23F]
Ki ([1]; read-out: HPLC Ki, Table 2m): < 10 nM
melting point: 71 to 72 °C
IC90 (HIV-1 (RF) in MT-2 cells; Human immunodeficiency virus 1, MT2, Table 2m, read-out: IC90): < 10 µg/mL

NNC(=O)c1cccc(CN2C(=O)N(Cc3cccc(C(=O)NN)c3)C(Cc3ccccc3)C(O)C(O)C2Cc2ccccc2)c1 (stereo not drawn) [Example 10M]
Ki [1, 3]: < 10 nM
melting point: 205 °C
IC90 (HIV-1 (RF) in MT-2 cells; [4]): < 10 µg/mL

OC1C(O)C(Cc2ccccc2)N(Cc2ccccc2)C(=S)N(Cc2ccccc2)C1Cc1ccccc1 (stereo not drawn) [Example 27A]
Ki ([1]; read-out: HPLC Ki, Table 2q): < 10 nM
melting point: 92 to 94 °C
IC90 (HIV-1 (RF) in MT-2 cells; [2]): < 10 µg/mL

NC(=O)c1cccc(CN2C(=O)N(Cc3ccc(CO)cc3)C(Cc3ccccc3)C(O)C(O)C2Cc2ccccc2)c1 (stereo not drawn) [15WT]
Ki [1, 3]: < 10 nM
melting point: 123 to 124 °C
IC90 (HIV-1 (RF) in MT-2 cells; [4]): < 10 µg/mL

CNc1cccc(CN2C(=O)N(Cc3cccc(NC)c3)C(Cc3ccccc3)C(O)C(O)C2Cc2ccccc2)c1 (stereo not drawn) [15D]
Ki [1, 3]: < 10 nM
melting point: 180.3 °C
IC90 (HIV-1 (RF) in MT-2 cells; [4]): < 10 µg/mL

CSc1cccc(CN2C(=O)N(Cc3cccc(SC)c3)C(Cc3ccccc3)C(O)C(O)C2Cc2ccccc2)c1 (stereo not drawn) [Example 12R]
Ki [1, 3]: < 10 nM
melting point: 169 °C and 169.3 °C
IC90 (HIV-1 (RF) in MT-2 cells; [4]): < 10 µg/mL

O=C1N(Cc2cccc(O)c2)C(Cc2ccccc2)C(O)C(O)C(Cc2ccccc2)N1Cc1ccc2ccccc2c1 (stereo not drawn) [10K]
Ki [1, 3]: < 10 nM
melting point: 137 to 138 °C
IC90 (HIV-1 (RF) in MT-2 cells; [4]): < 10 µg/mL

O=C(Nc1cccc(CN2C(=O)N(Cc3cccc(NC(=O)OCc4ccccc4)c3)C(Cc3ccccc3)C(O)C(O)C2Cc2ccccc2)c1)OCc1ccccc1 (stereo not drawn) [15E]
Ki [1, 3]: 10 to 1000 nM
melting point: 190.7 °C
IC90 (HIV-1 (RF) in MT-2 cells; [4]): > 100 µg/mL

O=C1N(Cc2cccc(-c3nnn[nH]3)c2)C(Cc2ccccc2)C(O)C(O)C(Cc2ccccc2)N1Cc1cccc(-c2nnn[nH]2)c1 (stereo not drawn) [9T]
Ki [1, 3]: < 10 nM
melting point: 159.4 °C
IC90 (HIV-1 (RF) in MT-2 cells; [4]): > 100 µg/mL

O=C1N(Cc2ccc3[nH]ncc3c2)C(Cc2ccccc2)C(O)C(O)C(Cc2ccccc2)N1Cc1ccc2[nH]ncc2c1 (stereo not drawn) [15CX]
Ki [1, 5]: < 10 nM
melting point: 165 to 170 °C
IC90 (HIV-1 (RF) in MT-2 cells; [6]): < 10 µg/mL

O=C1N(Cc2cccc(-c3nnn[nH]3)c2)C(Cc2ccccc2)C(O)C(O)C(Cc2ccccc2)N1CC1CC1 (stereo not drawn) [9U]
Ki [1, 3]: < 10 nM
melting point: 171.6 °C
IC90 (HIV-1 (RF) in MT-2 cells; [4]): < 10 µg/mL

O=C1N(Cc2cccc(-c3ncc[nH]3)c2)C(Cc2ccccc2)C(O)C(O)C(Cc2ccccc2)N1Cc1cccc(-c2ncc[nH]2)c1 (stereo not drawn) [Example 15BR]
Ki [1, 5]: < 10 nM
melting point: 178 to 180 °C
IC90 (HIV-1 (RF) in MT-2 cells; [6]): < 10 µg/mL

CNC(=O)Oc1cccc(CN2C(=O)N(Cc3cccc(OC(=O)NC)c3)C(Cc3ccccc3)C(O)C(O)C2Cc2ccccc2)c1 (stereo not drawn) [Example 9M]
Ki [1, 3]: 10 to 1000 nM
melting point: 150 °C (dec.)
IC90 (HIV-1 (RF) in MT-2 cells; Human immunodeficiency virus 1, MT2, 48 h): < 10 µg/mL

CNc1cccc(CN2C(=O)N(Cc3ccc4ccccc4c3)C(Cc3ccccc3)C(O)C(O)C2Cc2ccccc2)c1 (stereo not drawn) [15WZ]
Ki [1, 3]: < 10 nM
melting point: 98 to 100 °C
IC90 (HIV-1 (RF) in MT-2 cells; [4]): < 10 µg/mL

O=C1N(Cc2ccoc2)C(Cc2ccccc2)C(O)C(O)C(Cc2ccccc2)N1Cc1ccoc1 (stereo not drawn) [Example 15FN]
Ki ([1]; read-out: HPLC K1, HIV protease inhibition, HPLC method, Table 2d): < 10 nM
melting point: 152.5 to 153 °C
IC90 (HIV-1 (RF) in MT-2 cells; Human immunodeficiency virus 1, MT2, 48 h, HIV RNA assay, HIV-1 infected MT-2 cells, Table 2d, read-out: IC90): < 10 µg/mL
